From US20020061888A1, “Combination therapy for the prophylaxis and treatment of hyperlipidemic conditions and disorders” (priority 2000, published 2002)

Legend:
Assay type in all cases: in vivo
[1] = test system: Male beagle dogs; assay: Fecal bile acid concentration in beagle dogs (enzymatic 3α-hydroxysteroid dehydrogenase assay of fecal extracts); details: pravastatin monotherapy 10 mg/kg/day; for FECAL BILE ACID CONCENTRATION: n = 6
Procedure: Male beagle dogs (9-10 kg) obtained from Marshall farms were fed a normal chow diet once a day for a two hour interval and given water ad libitum. Prior to initiating treatment, the dogs were weighed and blood samples were drawn from the cephalic vein of each dog following an overnight fast to evaluate pretreatment serum total cholesterol levels at the start of the study. […] All doses were administered in gelatin capsules per os to each dog between 9:00-9:30 a.m. prior to feeding. All animals were fed between 9:30-10:00 a.m. and were allowed two hours to eat, at which time any remaining food was removed. […] Three consecutive 24 hour fecal samples were collected for each group during the last 72 hours of each week and used to measure the concentration of fecal biles acids excreted during that time period.
Fecal samples were collected to determine the fecal bile acid (“FBA”) concentration for each animal. Three consecutive 24 hour fecal samples were collected between 8:00 a.m. and 9:00 a.m. each day, prior to dosing and feeding, during the last 72 hour period of each week. The separate daily collections from each dog were weighed, combined and homogenized with distilled water in a food processor to generate a homogeneous slurry. A 1.4 g sample of fecal homogenate was extracted with 2.6 mL of a solution containing tertiary butanol:distilled water in the ratio of 2:0.6 (final concentration of 50% tertiary butanol v/v distilled water) for 45 minutes in a 37° C. water bath and centrifuged for 13 minutes at 2000 x g. The concentration of bile acids (μmoles/gram homogenate) was determined using a 96-well enzymatic assay system described in van der Meer et al., “t-Butanol Extraction of Feces: A Rapid Procedure For Enzymic Determination Of Fecal Bile Acids”, Cholesterol, Metabolism in Health and Disease: Studies in the Netherlands, edited by Beynen, et al., Ponsen and Looyen, Wageningen, 1985; and Turley et al., “Re-evaluation of the 3 Alpha-Hydroxysteroid Dehydrogenase Assay For Total Bile Acids In Bile”, J. Lipid Research, 19:924-928, 1978.
A 20 μL aliquot of each fecal extract was added to each of two sets of triplicate wells in a 96-well assay plate. A standardized sodium taurocholate solution and a standardized fecal extract solution (previously made from pooled samples and characterized for its bile acid concentration) were also analyzed for assay quality control. A standard curve of five points containing 30-540 nmoles/well was generated by serial dilutions of an initial 20 μL aliquot of 90 mM sodium taurocholate. A 230 μL aliquot of a reaction mixture containing 1M hydrazine hydrate, 0.1 M pyrophosphate and 0.46 mg/ml NAD was added to each well. Subsequently, a 50 μL aliquot of either 3α-hydroxysteroid dehydrogenase (“HSD”) enzyme (0.8 units/mL) or assay buffer (0.1 M sodium pyrophosphate) was then added to one each of the two sets of triplicates. Following 60 minutes of incubation at room temperature, the optical density at 340 nm was measured and the mean of each set of triplicate samples was calculated. The difference in optical density with and without HSD enzyme was used to determine the bile acid concentration (mM) of each sample based on the sodium taurocholate standard curve. The bile acid concentration of the extract (μmoles/gram homogenate), the total weight of the fecal homogenate (grams) and the body weight of the dogs (kg) were used to calculate the corresponding fecal bile acid concentration in μtmoles/kg/day for each animal.
All reagents used for the assay were obtained from Sigma Chemical Co., St. Louis, Mo. (HSD enzyme—catalog # H-1506; NAD—catalog # N1636; sodium taurocholate—catalog # T-4009).

[2] = test system: Male beagle dogs; assay: Serum triglyceride in beagle dogs; details: n = 6
Procedure: (§1) Following this initial four week dose-ranging study, dogs from the two groups receiving 10 mg/kg/day pravastatin (a.m. and p.m. dosing groups) were randomized into two new treatment groups based on serum total cholesterol levels to initiate the combination treatment study. […] Dosing continued in this manner for an additional four weeks (Weeks 5-8) with blood and 48-hour fecal samples collected at the end of each week for serum lipid measurements and fecal bile acid determinations, respectively. […] At the end of this three-week period, pravastatin dosing and all empty capsule dosing were discontinued and blood samples were collected weekly for a final three weeks (weeks 12-14) to monitor the return of serum total cholesterol levels back to baseline.
Blood was collected from the cephalic vein of each dog into serum separator tubes. The blood was centrifuged at 900×g for 20 minutes at room temperature and the serum decanted. All analyses were performed on a Cobas Mira Clinical Analyzer System (Roche Diagnostic Systems, Branchburg, N.J.) using Roche Diagnostic reagents for enzymatic determinations of serum cholesterol and triglycerides. Commercial calibrator and quality control materials were analyzed with each run to verify assay accuracy and precision. A two-tailed, paired Students t-test was used to determine the statistical significance of changes in total serum cholesterol in treated animals compared to their pretreatment values. A two-sample, two-tailed unequal variance Students t-test was used to determine serum total cholesterol and triglyceride changes in the combination therapy group compared to the monotherapy groups. […]

[3] = test system: Male beagle dogs; assay: Body or fecal weights, stool consistency, general animal health of treated beagle dogs; details: Example 3 study (pravastatin 3-30 mg/kg/day, compound A-5 4.0 mg/kg/day, combination), any of the groups
Procedure: Male beagle dogs (9-10 kg) obtained from Marshall farms were fed a normal chow diet once a day for a two hour interval and given water ad libitum. Prior to initiating treatment, the dogs were weighed and blood samples were drawn from the cephalic vein of each dog following an overnight fast to evaluate pretreatment serum total cholesterol levels at the start of the study. […] All doses were administered in gelatin capsules per os to each dog between 9:00-9:30 a.m. prior to feeding. All animals were fed between 9:30-10:00 a.m. and were allowed two hours to eat, at which time any remaining food was removed. […] Animals were dosed daily for three weeks and blood samples were taken at the end of each week after an overnight fast for comparison with pretreatment serum total cholesterol levels. Three consecutive 24 hour fecal samples were collected for each group during the last 72 hours of each week and used to measure the concentration of fecal biles acids excreted during that time period.
as §1
Male beagle dogs (9-10 kg) obtained from Marshall farms were fed once a day for two hours and given water ad libitum.

changes in body or fecal weights, stool consistency or general animal health [3]: no significant changes
SMILES: CC[C@H](C)C(=O)O[C@H]1C[C@H](O)C=C2C=C[C@H](C)[C@H](CC[C@@H](O)C[C@@H](O)CC(=O)O)[C@H]21 [pravastatin, Pravastatin]
% change in fecal bile acid concentration from Week 0 ([1]; Week 5): (−54) %
FECAL BILE ACID CONCENTRATION ([1]; Week 5, mean ± SEM): 17 ± 5 µmol/kg/day
% change in fecal bile acid concentration from Week 0 ([1]; Week 6): (−38) %
FECAL BILE ACID CONCENTRATION ([1]; Week 6, mean ± SEM): 23 ± 7 µmol/kg/day
% change in fecal bile acid concentration from Week 0 ([1]; Week 7): (−19) %
FECAL BILE ACID CONCENTRATION ([1]; Week 7, mean ± SEM): 30 ± 6 µmol/kg/day
% change in fecal bile acid concentration from Week 0 ([1]; Week 8): (−30) %
FECAL BILE ACID CONCENTRATION ([1]; Week 8, mean ± SEM): 26 ± 9 µmol/kg/day
% change in fecal bile acid concentration from Week 0 ([1]; Week 9): (−24) %
FECAL BILE ACID CONCENTRATION ([1]; Week 9, mean ± SEM): 28 ± 5 µmol/kg/day
% change in fecal bile acid concentration from Week 0 ([1]; Week 10): (−24) %
FECAL BILE ACID CONCENTRATION ([1]; Week 10, mean ± SEM): 28 ± 6 µmol/kg/day
TOTAL SERUM TRIGLYCERIDE ([2]; pravastatin monotherapy 10 mg/kg/day, dosed Weeks 1-11, Week 4, mean ± SEM): 30 ± 4 mg/dL
TOTAL SERUM TRIGLYCERIDE ([2]; pravastatin monotherapy 10 mg/kg/day, dosed Weeks 1-11, Week 5, mean ± SEM): 34 ± 3 mg/dL
TOTAL SERUM TRIGLYCERIDE ([2]; pravastatin monotherapy 10 mg/kg/day, dosed Weeks 1-11, Week 6, mean ± SEM): 35 ± 4 mg/dL
TOTAL SERUM TRIGLYCERIDE ([2]; pravastatin monotherapy 10 mg/kg/day, dosed Weeks 1-11, Week 7, mean ± SEM): 37 ± 3 mg/dL
TOTAL SERUM TRIGLYCERIDE ([2]; pravastatin monotherapy 10 mg/kg/day, dosed Weeks 1-11, Week 8, mean ± SEM): 38 ± 5 mg/dL
TOTAL SERUM TRIGLYCERIDE ([2]; pravastatin monotherapy 10 mg/kg/day, dosed Weeks 1-11, Week 9, mean ± SEM): 34 ± 2 mg/dL
TOTAL SERUM TRIGLYCERIDE ([2]; pravastatin monotherapy 10 mg/kg/day, dosed Weeks 1-11, Week 11, mean ± SEM): 33 ± 3 mg/dL
TOTAL SERUM TRIGLYCERIDE ([2]; pravastatin monotherapy group, dosing terminated after Week 11, Week 12, mean ± SEM): 46 ± 4 mg/dL
TOTAL SERUM TRIGLYCERIDE ([2]; pravastatin monotherapy group, dosing terminated after Week 11, Week 13, mean ± SEM): 44 ± 3 mg/dL
TOTAL SERUM TRIGLYCERIDE ([2]; pravastatin monotherapy group, dosing terminated after Week 11, Week 14, mean ± SEM): 40 ± 4 mg/dL
